According to patent US20200325177A1, “METHODS OF MAKING STREPTOGRAMIN COMPOSITIONS AND THE USE THEREOF” (THE REGENTS OF THE UNIVERSITY OF CALIFORNIA, priority 2017, published 2020):
Converted amounts (≈) assume the structure as drawn. Like-named read-outs stand apart in the source and are kept apart here.

Legend:
E. faecalis = experiment: MIC, Gram-positive bacteria: E. faecalis; type: cell-based; settings: Enterococcus faecalis, column 1, read-out: Minimal Inhibitory Concentration (MIC) E. faecalis
E. faecium ATCC 35667 = experiment: MIC, Gram-positive bacteria: E. faecium ATCC 35667; type: cell-based; settings: Enterococcus faecium, ATCC35667, column 2, read-out: Minimal Inhibitory Concentration (MIC) E. faecium ATCC 35667
E. faecium VRE; vanA = experiment: MIC, Gram-positive bacteria: E. faecium VRE; vanA; type: cell-based; settings: Enterococcus faecium, column 3, read-out: Minimal Inhibitory Concentration (MIC) E. faecium VRE
S. aureus = experiment: MIC, Gram-positive bacteria: S. aureus (strains not named); type: cell-based; settings: Staphylococcus aureus, read-out: Minimal Inhibitory Concentration (MIC) S. aureus
[1] = tested on: S. aureus Vat A streptogramin; experiment: MIC, Gram-positive bacteria: S. aureus Vat A streptogramin; type: cell-based; settings: Staphylococcus aureus; Gram-positive; column 5; read-out: Minimal Inhibitory Concentration (MIC) S. aureus Vat A streptogramin
[2] = tested on: S. aureus Linezolid-resistant; cfr; experiment: MIC, Gram-positive bacteria: S. aureus Linezolid-resistant; cfr; type: cell-based; settings: Staphylococcus aureus, column 9, read-out: Minimal Inhibitory Concentration (MIC) S. aureus Linezolid-resistant
S. pneumoniae = experiment: MIC, Gram-positive bacteria: S. pneumoniae; type: cell-based; settings: Streptococcus pneumoniae, column 10, read-out: Minimal Inhibitory Concentration (MIC) S. pneumoniae
[3] = tested on: K. pneumoniae multidrug-resistant; experiment: MIC, Gram-negative bacteria: K. pneumoniae multidrug-resistant; type: cell-based; settings: Klebsiella pneumoniae, read-out: Minimal Inhibitory Concentration (MIC) K. pneumoniae multidrug-resistant
P. aeruginosa ATCC 27853 = experiment: MIC, Gram-negative bacteria: P. aeruginosa ATCC 27853; type: cell-based; settings: Pseudomonas aeruginosa, ATCC27853, read-out: Minimal Inhibitory Concentration (MIC) P. aeruginosa ATCC 27853
[4] = tested on: P. aeruginosa MDR clinical isolate; experiment: MIC, Gram-negative bacteria: P. aeruginosa MDR clinical isolate; type: cell-based; settings: Pseudomonas aeruginosa, read-out: Minimal Inhibitory Concentration (MIC) P. aeruginosa MDR clinical isolate
H. influenzae ATCC 49247 = experiment: MIC, Gram-negative bacteria: H. influenzae ATCC 49247; type: cell-based; settings: Haemophilus influenzae, ATCC49247, read-out: Minimal Inhibitory Concentration (MIC) H. influenzae ATCC 49247
Gram-Negative Organisms = experiment: microbe, parasite or virus in culture; type: cell-based
[5] = tested on: large subunit of the E. coli ribosome; experiment: cryo-EM structure bound to ribosome; type: binding; settings: 2.8 Angstrom resolution cryo-EM; isoquinoline sidechain reaches into the P-site
Text: FIGS. 7A-7B. […] FIG. 7B depicts the structure of SAO110224.

CC1=C\[C@@H](O)CC(=O)Cc2nc(co2)C(=O)N2CCC[C@@H]2C(=O)O[C@H]([C@H](C)COC(=O)Nc2cc3ccccc3cn2)[C@H](C)/C=C/C(=O)NC\C=C\1 [SA0110224]
MIC (E. faecalis): > 64 µg/mL
MIC (E. faecium ATCC 35667): 4 µg/mL (≈ 5.6 µM)
MIC (E. faecium VRE; vanA): 8 µg/mL (≈ 11.2 µM)
MIC (S. aureus; first unnamed S. aureus column (c4)): 4 µg/mL (≈ 5.6 µM)
MIC (S. aureus; fourth unnamed S. aureus column (c8)): 4 µg/mL (≈ 5.6 µM)
MIC (S. aureus; second unnamed S. aureus column (c6)): 4 µg/mL (≈ 5.6 µM)
MIC (S. aureus; third unnamed S. aureus column (c7)): 8 µg/mL (≈ 11.2 µM)
MIC [1]: 16 µg/mL (≈ 22.4 µM)
MIC [2]: > 64 µg/mL
MIC (S. pneumoniae): 16 µg/mL (≈ 22.4 µM)
MIC [3]: > 64 µg/mL
MIC (P. aeruginosa ATCC 27853): > 64 µg/mL
MIC [4]: > 64 µg/mL
MIC (H. influenzae ATCC 49247): 2 µg/mL (≈ 2.8 µM)
MIC (Gram-Negative Organisms; Acinetobacter baumannii, ATCC19606, read-out: Minimal Inhibitory Concentration (MIC), A. baumannii ATCC 19606): > 64 µg/mL
MIC (Gram-Negative Organisms; Escherichia coli, ATCC25922, read-out: Minimal Inhibitory Concentration (MIC), E. coli ATCC 25922): > 64 µg/mL
MIC (Gram-Negative Organisms; Escherichia coli, read-out: Minimal Inhibitory Concentration (MIC), E. coli BAS2006, OMP C, OMP F): 8 µg/mL (≈ 11.2 µM)
MIC (Gram-Negative Organisms; Escherichia coli, read-out: Minimal Inhibitory Concentration (MIC), E. coli olC efflux defective): 1 µg/mL (≈ 1.4 µM)
MIC (Gram-Negative Organisms; Escherichia coli, read-out: Minimal Inhibitory Concentration (MIC), E. coli permeability mutant BAS1314, IMP4213ZAB::TN10): 1 µg/mL (≈ 1.4 µM)
MIC (Gram-Negative Organisms; Escherichia coli, read-out: Minimal Inhibitory Concentration (MIC), E. coli ΔompC768, KanR insert): > 64 µg/mL
MIC (Gram-Negative Organisms; Klebsiella pneumoniae, ATCC43816, read-out: Minimal Inhibitory Concentration (MIC), K. pneumoniae ATCC 43816): > 64 µg/mL
binding to ribosome seen in cryo-EM structure [5]: bound to large subunit of the E. coli ribosome
